The source of these data is patent US20250002450A1, “CATIONIC STEROID COMPOUNDS, METHOD OF OBTAINING THEREOF, FORMULATIONS COMPRISING THEREOF AND THEIR USES” (UNIVERSIDADE DO PORTO, priority 2021, published 2025).

The subject of experiment [1] is C. albicans ATCC 10231. The experiment is described as follows: Germ tube formation. To be noted: 3 h. The format is cell-based, Candida albicans. The method, then:
The effect of compound 1 in germ tube formation of C. albicans ATCC 10231 was determined as previously described. Briefly, cell suspensions were prepared in NYP medium (N-acetylglucosamine [Sigma, St. Louis, MO, USA; 10-3 mol/L], yeast nitrogen base [Difco, New Jersey, USA; 3.35 g/L], proline [Fluka, Buchs, St. Gallen, Switzerland; 10^−3 mol/L], and NaCl [4.5 g/L], pH 6.7±0.1) and adjusted to a density of (1.0±0.2)×10^6 CFU/mL, as determined by cell counts using a haemocytometer. An appropriate volume of compound stock solution at 10 mg/mL was added to obtain final concentrations ranging between 64 and 8 μg/mL. Filamentation controls were included in each assay with and without 0.64% DMSO. Following a 3 h incubation at 37° C., 100 cells from each sample were counted, using a haemocytometer, and the percentage of germ tubes was determined. Three independent assays were performed.

The subject of experiment [2] is yeasts and filamentous fungi, including dermatophytes. The experiment is described as follows: Antifungal activity, whole strain panel. The settings on record: all microorganisms tested (Table 2). Type of experiment: cell-based. As to the method:
The antifungal activity of compound 1 was evaluated for a wide range of fungal species, covering yeasts and filamentous fungi, including dermatophytes. […] This antimicrobial effect was fungicidal, with minimal lethal concentrations (MLC) being equal to, or one or two-fold higher than the respective MIC. Twenty-three fungal strains were used in this study, including reference strains and clinical isolates of yeasts and filamentous fungi. Yeast strains included reference strains (ATCC—American Type Culture Collection and CECT—Colección Española de Cultivos Tipo) and clinical isolates: C. albicans ATCC 10231, Candida krusei ATCC 6258, C. albicans H37, C. albicans FF172, C. albicans FF176, C. albicans DSY294, C. albicans DSY296, C. glabrata DSY562, C. glabrata DSY565 and Cryptococcus neoformans CECT 1078. […]
Antifungal activity was evaluated by determining the MIC of compound 1 by the broth microdilution method, according to CLSI guidelines (reference documents M27-A3 for yeasts and M38-A2 for filamentous fungi). […] The minimal lethal concentration (MLC) was determined by spreading 20 μL of culture collected from wells showing no visible growth on SDA plates. The MLC was determined as the lowest concentration showing complete growth inhibition after 48 h at 35 degrees C., 48 h at 25 degrees C. […]

Experiment [3] deals with C. albicans ATCC 10231. As to the kind of experiment: Checkerboard synergy with antifungal drugs. Type of experiment: cell-based, Candida albicans.
Experimental: According to the consensus interpretation of FICI values, FICI≤0.5 is interpreted as ‘synergy’. […] Inoculum and compound solutions were prepared as described for antifungal susceptibility testing. Fractional inhibitory concentrations (FIC) were calculated as follows: FIC of compound=MIC of compound combined with antifungal/MIC compound alone, and FIC antifungal=MIC of antifungal combined with compound/MIC of antifungal alone. The FIC index (FICI) was calculated as the sum of each FIC and interpreted as follows: FICI≤0.5, ‘synergy’; 0.5<FICI≤4, ‘no interaction’; FICI>4, ‘antagonism’. At least three independent experiments were performed and mean FICI was calculated.
A further experiment deals with C. jejuni P5/4. As to the kind of experiment: Kirby-Bauer disk diffusion. Type of experiment: cell-based, Campylobacter jejuni. To be noted: 15 μg per disk. The method, then: An initial screening of the antibacterial activity of the compounds was performed by the Kirby-Bauer disk diffusion method, as recommended by the Clinical and Laboratory Standards Institute (CLSI). Briefly, sterile 6 mm blank paper disks (Oxoid, Basingstoke, England) impregnated with 15 μg of each compound were placed on inoculated MH agar plates. A blank disk with dimethylsulfoxide (DMSO) was used as a negative control. MH inoculated plates were incubated for 18-20 h at 37 degrees C. At the end of incubation, the inhibition halos where measured. The MIC was used to determine the antibacterial activity of each compound, in accordance with the recommendations of the CLSI. Two-fold serial dilutions of the compounds were prepared in Mueller-Hinton Broth 2 (MHB2—Sigma-Aldrich, St. Louis, MO, USA) within the concentration range of 0.062-64 μg/mL. CTX ranging between 0.031-16 μg/mL was used as a control. Sterility and growth controls were included in each assay. Purity checks and colony counts of the inoculum suspensions were also performed in order to ensure that the final inoculum density closely approximates the intended number (5×10^5 CFU/mL). The MIC was determined as the lowest concentration of compound that inhibited growth of the bacteria. The MBC was assessed by spreading 10 μL of culture collected from wells showing no visible growth on MH agar plates. […]

Regarding `C[C@H](CCC(=O)NCCN)[C@H]1CC[C@H]2[C@@H]3CC[C@@H]4C[C@H](O)CC[C@]4(C)[C@H]3C[C@H](O)[C@]12C` [Compound 1, (R)—N-(2-aminoethyl)-4-((3R,5R,8R,9S,10S,12S,13R,14S,17R)-3,12-dihydroxy-10,13-dimethylhexadecahydro-1H-cyclopenta[a]phenanthren-17-yl) pentanamida], the “dimorphic transition / germ tube formation (in words)” value in the experiment with C. albicans ATCC 10231 [1] (64 μg/mL (MIC)) is reported as “complete inhibition of dimorphic transition”; in the experiment with C. albicans ATCC 10231 [1] (32 and 16 μg/mL (½×MIC and ¼×MIC)) it was “significant inhibition”. In experiment [2], the “spectrum of antifungal activity (in words)” value was “active against all microorganisms tested”. The “effect on trailing caused by fluconazole at its MIC (in words)” value in the experiment with C. albicans ATCC 10231 [3] (16 μg/mL of compound 1 (¼×MIC), fluconazole 2 μg/mL) is “eliminated trailing”. The “fractional inhibitory concentration index (FICI)” value in the experiment on C. albicans ATCC 10231 [3] (with amphotericin B) and in the experiment on C. albicans ATCC 10231 [3] (with fluconazole) was no more than 0.5 each time. Besides, the Disk diffusion in the experiment with C. jejuni P5/4 is 8 mm.
